Each structure is given as a SMILES string. Several values for one entry are separate records, joined by “and”; a condition that tells them apart may be missing. Equal values may be shown once. Toxic doses and inconclusive results are not listed.

The assay concerns BDF1 mice, P388 leukemia ip, median survival T/C. Briefly: NCI In Vivo Anticancer Drug Screen. Data for tumor model P388 Leukemia (intraperitoneal) in B6D2F1 (BDF1) mice. The note with it: endpoint: median survival time, higher = longer survival. The procedure, abridged: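 Mice carrying the transplantable tumour receive compound or vehicle. Survival is followed in each arm, and the treated measure is divided by the vehicle measure.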

Where [1] appears, read: dose: 25.0 mg/kg/injection, schedule: Q01DX009 (ip), vehicle: saline with Tween-80.
The mark [2] stands for this setting: dose: 50.0 mg/kg/injection, schedule: Q01DX009 (ip), vehicle: saline with Tween-80.
Setting [3] is: dose: 50.0 mg/kg/injection, schedule: Q04DX003 (ip), vehicle: saline with Tween-80.
[4] abbreviates: dose: 100.0 mg/kg/injection, schedule: Q01DX009 (ip), vehicle: saline with Tween-80.
[5] abbreviates: dose: 12.5 mg/kg/injection, schedule: Q01DX009 (ip), vehicle: saline with Tween-80.
Setting [6] is: dose: 200.0 mg/kg/injection, schedule: Q01DX009 (ip), vehicle: saline.
The mark [7] stands for this setting: dose: 100.0 mg/kg/injection, schedule: Q01DX009 (ip), vehicle: Klucel (hydroxypropylcellulose) (HPC).
[8] abbreviates: dose: 200.0 mg/kg/injection, schedule: Q01DX009 (ip), vehicle: Klucel (hydroxypropylcellulose) (HPC).
[9] abbreviates: dose: 400.0 mg/kg/injection, schedule: Q01DX009 (ip), vehicle: Klucel (hydroxypropylcellulose) (HPC).

`COc1cc2cc(c1Cl)NC(=O)CC(OC(=O)C(C)N(C)C(=O)C1(C)CC1C)C1(C)OC1C(C)C1CC(O)(NC(=O)O1)C(OC)C=C/C=C(\C)C2` (configuration not stated): the T/C is, setting by setting: (dose: 0.1 micrograms/kg/injection, schedule: Q01DX009 (ip), vehicle: saline + alcohol) 115 % of control; (dose: 0.2 micrograms/kg/injection, schedule: Q01DX009 (ip), vehicle: saline + alcohol) 165 % of control; (dose: 0.4 micrograms/kg/injection, schedule: Q01DX009 (ip), vehicle: saline + alcohol) 165 % of control; (dose: 0.8 micrograms/kg/injection, schedule: Q01DX009 (ip), vehicle: saline + alcohol) 155 % of control; (dose: 1.6 micrograms/kg/injection, schedule: Q01DX009 (ip), vehicle: saline + alcohol) 167 % of control and 175 % of control; (dose: 3.1 micrograms/kg/injection, schedule: Q01DX009 (ip), vehicle: saline + alcohol) 184 % of control and 190 % of control. Also, the T/C is 233 % of control and 300 % of control (dose: 6.2 micrograms/kg/injection, schedule: Q01DX009 (ip), vehicle: saline + alcohol); 184 % of control and 200 % of control (dose: 12.5 micrograms/kg/injection, schedule: Q01DX009 (ip), vehicle: saline + alcohol); 87 % of control and 90 % of control (dose: 25.0 micrograms/kg/injection, schedule: Q01DX009 (ip), vehicle: saline + alcohol).
`Cc1ccc(C(=O)O)cc1S(=O)(=O)Cl`: the T/C reads like this: (dose: 4.0 mg/kg/injection, schedule: Q01DX009 (ip), vehicle: saline with Tween-80) 117 % of control; (dose: 8.0 mg/kg/injection, schedule: Q01DX009 (ip), vehicle: saline with Tween-80) 110 % of control; (dose: 16.0 mg/kg/injection, schedule: Q01DX009 (ip), vehicle: saline with Tween-80) 90 % of control; under setting [1], 104 % of control; (dose: 32.0 mg/kg/injection, schedule: Q01DX009 (ip), vehicle: saline with Tween-80) 117 % of control; under setting [2], 95 % of control. Further, the T/C reads like this: under setting [3], 106 % of control; under setting [4], 98 % of control; (dose: 100.0 mg/kg/injection, schedule: Q04DX003 (ip), vehicle: saline with Tween-80) 100 % of control; (dose: 200.0 mg/kg/injection, schedule: Q01DX009 (ip), vehicle: saline with Tween-80) 95 % of control.
On to `CCOC(=O)C(C)(C)CN(CC(C)(C)C(=O)OCC)C(C)(C)C`, for which the T/C runs as follows: (dose: 50.0 mg/kg/injection, schedule: Q01DX001 (ip), vehicle: saline) 110 % of control; (dose: 100.0 mg/kg/injection, schedule: Q01DX001 (ip), vehicle: saline) 120 % of control.
Turning to `C=C(COC(C)(C)C)CN(C)C`, the T/C is 92 % of control (dose: 25.0 mg/kg/injection, schedule: Q01DX009 (ip), vehicle: acetone); 100 % of control (dose: 50.0 mg/kg/injection, schedule: Q01DX009 (ip), vehicle: acetone); 96 % of control (dose: 100.0 mg/kg/injection, schedule: Q01DX009 (ip), vehicle: acetone).
`CCCCCCCCCCCCCCCCCCCC`: the T/C was 100 % of control (dose: 6.25 mg/kg/injection, schedule: Q04DX003 (ip), vehicle: other); 100 % of control (dose: 12.5 mg/kg/injection, schedule: Q04DX003 (ip), vehicle: other); 100 % of control (dose: 25.0 mg/kg/injection, schedule: Q04DX003 (ip), vehicle: other); 100 % of control (dose: 50.0 mg/kg/injection, schedule: Q01DX009 (ip), vehicle: other); 100 % of control (dose: 100.0 mg/kg/injection, schedule: Q01DX009 (ip), vehicle: other).
Regarding `COc1cccc2c1C(=O)c1c(O)c3c(c(O)c1C2=O)C[C@@](O)(/C(CO)=N/NC(=O)c1ccc(Cl)c(Cl)c1)C[C@@H]3OC1CC(N)C(O)C(C)O1` (some centres not stated), the T/C was 94 % of control (dose: 0.78 mg/kg/injection, schedule: Q01DX009 (ip), vehicle: water); 116 % of control and 217 % of control (dose: 3.12 mg/kg/injection, schedule: Q01DX009 (ip), vehicle: water); 121 % of control (dose: 6.25 mg/kg/injection, schedule: Q01DX009 (ip), vehicle: water).
With `C=Cc1ccccc1-c1ccccc1C(=O)OC`, the T/C runs as follows: (dose: 200.0 mg/kg/injection, schedule: Q04DX003 (ip), vehicle: saline with Tween-80) 87 % of control; (dose: 400.0 mg/kg/injection, schedule: Q04DX003 (ip), vehicle: saline with Tween-80) 105 % of control.
Regarding `CCCn1c2nc(=O)n(C)c(=O)c-2[n+]([O-])c2ccccc21`, the T/C was 101 % of control (dose: 6.25 mg/kg/injection, schedule: Q01DX001 (ip), vehicle: saline with Tween-80) and 99 % of control (dose: 12.5 mg/kg/injection, schedule: Q01DX001 (ip), vehicle: saline with Tween-80).
Consider `CCOC(=O)C(CCSC(C)=O)SC(C)=O` (configuration not stated), for which the T/C (dose: 6.25 mg/kg/injection, schedule: Q01DX009 (ip), vehicle: saline with Tween-80) was 96 % of control; the T/C under setting [5] is 122 % of control; the T/C (dose: 12.5 mg/kg/injection, schedule: Q04DX003 (ip), vehicle: saline with Tween-80) is 111 % of control; the T/C under setting [1] was 114 % of control; the T/C (dose: 25.0 mg/kg/injection, schedule: Q04DX003 (ip), vehicle: saline with Tween-80) is 115 % of control; the T/C under setting [2] is 104 % of control. Also, under setting [3], the T/C was 109 % of control and 111 % of control.
Consider `O=C(O)C(NC1CCCCC1)c1ccccc1` (configuration not stated), for which the T/C runs as follows: (dose: 50.0 mg/kg/injection, schedule: Q01DX009 (ip), vehicle: saline) 120 % of control; (dose: 100.0 mg/kg/injection, schedule: Q01DX009 (ip), vehicle: saline) 105 % of control; under setting [6], 100 % of control.
In the case of `CCOC(=O)C(C#N)C1CCCCC1` (configuration not stated), the T/C runs as follows: under setting [7], 100 % of control; (dose: 100.0 mg/kg/injection, schedule: Q04DX003 (ip), vehicle: Klucel (hydroxypropylcellulose) (HPC)) 104 % of control; under setting [8], 104 % of control; (dose: 200.0 mg/kg/injection, schedule: Q04DX003 (ip), vehicle: Klucel (hydroxypropylcellulose) (HPC)) 104 % of control; under setting [9], 109 % of control; (dose: 400.0 mg/kg/injection, schedule: Q04DX003 (ip), vehicle: Klucel (hydroxypropylcellulose) (HPC)) 90 % of control.
Take `NS(=O)(=O)c1ccc(NC(=O)c2ccccc2C(=O)O)cc1`: the T/C reads like this: under setting [7], 95 % of control; under setting [8], 100 % of control; under setting [9], 105 % of control.
For `CC1=[N+](C)C(C)(C)CC(C)O1` (configuration not stated), the T/C was 100 % of control (dose: 4.5 mg/kg/injection, schedule: Q01DX009 (ip), vehicle: saline); 100 % of control (dose: 6.25 mg/kg/injection, schedule: Q01DX009 (ip), vehicle: saline); 108 % of control (dose: 7.0 mg/kg/injection, schedule: Q01DX009 (ip), vehicle: saline); 100 % of control (dose: 11.0 mg/kg/injection, schedule: Q01DX009 (ip), vehicle: saline); 95 % of control (dose: 12.5 mg/kg/injection, schedule: Q01DX009 (ip), vehicle: saline); 103 % of control and 104 % of control (dose: 16.5 mg/kg/injection, schedule: Q01DX009 (ip), vehicle: saline). For the same molecule, the T/C is, setting by setting: (dose: 37.5 mg/kg/injection, schedule: Q01DX009 (ip), vehicle: saline) 92 % of control and 109 % of control; under setting [6], 90 % of control.
On to `CN=S(=O)(OCCCCOS(=O)(=NC)c1ccccc1)c1ccccc1` (configuration not stated), for which the T/C under setting [5] was 116 % of control.
Take `NC(=S)NNC(=O)/C=C/c1ccccc1`: the T/C runs as follows: (dose: 100.0 mg/kg/injection, schedule: Q01DX001 (ip), vehicle: saline sonified) 104 % of control; (dose: 200.0 mg/kg/injection, schedule: Q01DX001 (ip), vehicle: saline sonified) 100 % of control; (dose: 400.0 mg/kg/injection, schedule: Q01DX001 (ip), vehicle: saline sonified) 95 % of control.
Take `O=C(CBr)c1cccnc1`: the T/C is, setting by setting: (dose: 6.25 mg/kg/injection, schedule: Q04DX003 (ip), vehicle: saline) 104 % of control; (dose: 12.5 mg/kg/injection, schedule: Q04DX003 (ip), vehicle: saline) 104 % of control; (dose: 25.0 mg/kg/injection, schedule: Q04DX003 (ip), vehicle: saline) 95 % of control.
For the molecule `COC(=O)C1(C(=O)OC)N=C(C)OO1`, the T/C by setting is: under setting [2], 121 % of control; under setting [4], 112 % of control.

These data come from PubChem BioAssay AID328 (DTP/NCI, 2004).
